Assays:
[1] = white crystal or crystalline powder; cited from earlier work
[2] = Dissolution test (paddle blade method, 0.2% w/v sodium dodecylsulfate aqueous solution); type: physicochemical; details: powder equal to 100 mg tolvaptan, paddle 100 rpm
Description: Q.S. (the amount is equal to 100 mg of tolvaptan) of the powder prepared in Examples 1-10, Comparative examples and the control (crystal material with a particle diameter distribution of 1400 μm and an average diameter of 83 μm) were added to the dissolution tester. 0.2% w/v sodium dodecylsulfate aqueous solution was used as the solvent. The dissolution test was performed using the paddle blade method with the rotation speed of 100 rpm. A sample was taken at 5 min, 10 min, 15 min, 20 min, 30 min, and 45 min to determine the absorbance and calculate the dissolution rate.
The determination of the dissolution rate (%) is as follows: dissolve a certain amount of tolvaptan in methanol; transfer 5 ml of the solution to a 100-ml volumetric flask and then dilute with 0.2% (w/v) sodium dodecylsulfate aqueous solution to give a 20 μg/ml standard solution; the absorbance of the standard solution and the sample solution was determined at wavelengths of 269 nm and 330 nm. The dissolution rate can be obtained by the ratio of the difference of the absorbance of standard solution and the control and the difference of the absorbance of the sample solution and control.

Compound | solubility in water [1] | dissolution rate ([2]; 5 min) [%] | dissolution rate ([2]; 10 min) [%] | dissolution rate ([2]; 15 min) [%] | dissolution rate ([2]; 20 min) [%] | dissolution rate ([2]; 30 min) [%] | dissolution rate ([2]; 45 min) [%]
Cc1ccccc1C(=O)Nc1ccc(C(=O)N2CCC[C@@H](O)c3cc(Cl)ccc32)c(C)c1 [Tolvaptan, 7-chloro-5-hydroxy-1-[2-methyl-4-(2-methylbenzoylamino)benzoyl]-2,3,4,5,-tetrohydro-1H-benzoazepine] | only slightly soluble in water | – | – | – | – | – | –
Cc1ccccc1C(=O)Nc1ccc(C(=O)N2CCC[C@@H](O)c3cc(Cl)ccc32)c(C)c1 [compound 1] | – | 15.9 | 19.1 | 22.2 | 25.8 | 30.7 | 42.8

— US9408915B2, “Tolvaptan solid dispersion and its preparation method” (Jiangsu Hengrui Medicine Co., Ltd., priority 2010, dated 2016)
